Assay results: publication PMC8032764 (Scientific Reports, 2021)

How the values were obtained:
Plasma protein binding = assay type: in vitro ADME
Source text: Free plasma concentrations were used to estimate receptor occupancy.

Melanocortin MC4 = tested on: T1, Melanocortin MC4; experiment: Cerep binding; design: species or system human; settings: 10 μM; [125I]NDP-α-MSH; hum. recomb. (CHO)
T1 construct: purchased Eurofins Cerep

human α6β3γ2 = target: T2, human α6β3γ2 (Homo sapiens, UniProt P18507+Q16445); experiment: [3H]-Ro 15-4513 competition binding; settings: at > 3 µM; data not shown
T2 construct: expressed in transfected cells; host or cells: HEK293-EBNA, transient
Method: (§1) HEK293-EBNA cells adapted to grow in suspension were transiently transfected with the plasmids containing the desired GABAA receptor subunit cDNAs at α, β, γ, 1:1:2 ratio using XtremeGENE Q2 (Cat. No. 03045595001, Roche Applied Science, RAS, Rotkreuz, Switzerland) as previously described. GABAA α1β2γ2, α2β3γ2, α3β3γ2, α4β3γ2, α5β3γ2 and α6β3γ2 receptor subtypes were expressed in this system. 48 h post transfection, the cells were harvested and washed three times with cold PBS and frozen at − 80 °C.
(§2) IC50 values were derived from the inhibition curve and Ki values were calculated as described below.

human α4β3γ2 = target: T3, human α4β3γ2 (Homo sapiens, UniProt P18507+P48169); experiment: [3H]-Ro 15-4513 competition binding; settings: at > 3 µM; data not shown
T3 construct: expressed in transfected cells; host or cells: HEK293-EBNA, transient
Method: as §1, §2

Glucocorticoid = tested on: T4, Glucocorticoid; experiment: Cerep binding; design: species or system human; settings: 10 μM; [3H]dexamethasone; hum., IM-9 cells, cytosol
T4 construct: hum., IM-9 cells,; host or cells: IM-9 cells, cytosol

Nociceptin (ORL1) = tested on: T5, Nociceptin (ORL1); experiment: Cerep binding; design: species or system human; settings: 10 μM; [3H]nociceptin; hum. recomb. (HEK-293)
T5 construct: host or cells: HEK-293

Question: Which fraction unbound (Plasma protein binding; human, plasma, primates, including humans) does the source give for `Cc1onc(-c2ccc(F)cc2)c1COc1ccc(C(=O)N2CCS(=O)(=O)CC2)cn1` [basmisanil] here?
Answer: 0.055

Question: And the free fraction (Plasma protein binding; primates, including humans)?
Answer: 5.5%

Question: And the fraction unbound (Plasma protein binding; rat, rats)?
Answer: 0.14

Question: And the “% Inhibition” value (Melanocortin MC4)?
Answer: 9%

Question: And the binding (human α6β3γ2)?
Answer: no binding

Question: And the binding (human α4β3γ2)?
Answer: no binding

Question: What about the “% Inhibition” value (Glucocorticoid) of the same compound?
Answer: -2%

Question: And the “% Inhibition” value (Nociceptin (ORL1))?
Answer: -4%
